How the values were obtained:
[1] = system: Monocytes from Heart Failure Dogs; test: Oxygen consumption rate (XF analyzer) in isolated monocytes incubated with peptide, heart failure dogs; assay type: cell-based, dog; conditions: for MAXresp (maximal respiration) / Proton Leak / SRC (spare respiratory capacity): monocytes from heart failure dogs
Description: (§1) Peripheral blood samples were obtained from 6 normal dogs and 6 dogs with coronary microembolizations-induced heart failure (LV ejection fraction ˜30%). Monocytes were isolated from the peripheral blood samples via sequential Ficoll and Percoll density gradients. Monocyte viability, assayed using Trypan blue exclusion, was ˜70%. An XFc/XF96 analyzer (Scahorsc Bioscience) was used to measure oxygen consumption rates (OCR) in monocytes in the presence and absence of 1 μM oligomycin, 0.5 μM FCCP, or 1 μM each rotenone and antimycin. Mitochondrial proton leak, maximal respiration (MAXresp) and spare respiratory capacity (SRC) were measured in the presence and absence of 0.1, 1.0 and 10 μM concentrations of D-Arg-2′6′Dmt-Lys-Phe-NH2. Results were expressed in pmols OCR/min/μg protein.

[2] = system: Monocytes from Normal Dogs; test: Oxygen consumption rate (XF analyzer) in isolated monocytes incubated with peptide, normal dogs; assay type: cell-based, dog; conditions: for MAXresp (maximal respiration) / Proton Leak / SRC (spare respiratory capacity): monocytes from normal dogs
Description: as §1

[3] = system: several mammalian cell types; conditions: energy-independent manner; Zhao et al., J. Pharmacol Exp Ther., 304:425-432, 2003; cited from earlier work
[4] = heart failure dogs, 0.1, 1.0 and 10 μM

D-Arg-2′6′Dmt-Lys-Phe-NH2
change in MAXresp with concentration [1, 4]: dose-dependent increase
change in SRC with concentration [1, 4]: dose-dependent increase
change in proton leak with concentration [1, 4]: dose-dependent decrease
monocyte mitochondrial function ([1]; heart failure dogs, after treatment with 0.1, 1.0 and 10 μM): nearly normalized/restored
MAXresp (maximal respiration) ([1]; peptide concentration 0.1 μM): 6.3 pmols OCR/min/μg protein
Proton Leak ([1]; peptide concentration 0.1 μM): 1.55 pmols OCR/min/μg protein
SRC (spare respiratory capacity) ([1]; peptide concentration 0.1 μM): 1.95 pmols OCR/min/μg protein
MAXresp (maximal respiration) ([1]; peptide concentration 1.0 μM): 8.3 pmols OCR/min/μg protein
Proton Leak ([1]; peptide concentration 1.0 μM): 0.94 pmols OCR/min/μg protein
SRC (spare respiratory capacity) ([1]; peptide concentration 1.0 μM): 3.64 pmols OCR/min/μg protein
MAXresp (maximal respiration) ([1]; peptide concentration 10 μM): 9.4 pmols OCR/min/μg protein
Proton Leak ([1]; peptide concentration 10 μM): 0.77 pmols OCR/min/μg protein
SRC (spare respiratory capacity) ([1]; peptide concentration 10 μM): 4.51 pmols OCR/min/μg protein
MAXresp (maximal respiration) ([2]; peptide concentration 0.1 μM): 11.1 pmols OCR/min/μg protein
Proton Leak ([2]; peptide concentration 0.1 μM): 0.54 pmols OCR/min/μg protein
SRC (spare respiratory capacity) ([2]; peptide concentration 0.1 μM): 6.35 pmols OCR/min/μg protein
MAXresp (maximal respiration) ([2]; peptide concentration 1.0 μM): 12.1 pmols OCR/min/μg protein
Proton Leak ([2]; peptide concentration 1.0 μM): 0.47 pmols OCR/min/μg protein
SRC (spare respiratory capacity) ([2]; peptide concentration 1.0 μM): 7.04 pmols OCR/min/μg protein
MAXresp (maximal respiration) ([2]; peptide concentration 10 μM): 12.1 pmols OCR/min/μg protein
Proton Leak ([2]; peptide concentration 10 μM): 0.48 pmols OCR/min/μg protein
SRC (spare respiratory capacity) ([2]; peptide concentration 10 μM): 7.04 pmols OCR/min/μg protein
effect on measures of monocyte mitochondrial function ([2]; normal dogs, incubation with 0.1, 1.0 and 10 μM): no effect

2′,6′-Dmt-D-Arg-Phe-Lys-NH2
penetration of the plasma membrane [3]: readily penetrates the plasma membrane

Reference: patent US11366104B2, “Methods of identifying and monitoring mitochondrial dysfunction using monocyte screening” (Stealth BioTherapeutics Inc., priority 2014, dated 2022)
